Molecular target: T1, HCV-NS5b (Hepatitis C virus genotype 1b, UniProt Q9WMX2)
T1 construct: (His)6 (C); made in house; host or cells: XL-1 cells (E. coli), IPTG-inducible plasmid, nickel-NTA purification
Experiment: HCV-NS5b enzyme assay (incorporation of radiolabeled UTP)
Assay type: biochemical
Conditions: for inhibition at 33 µM: enzyme inhibition at compound concentration of 33 uM; for inhibition at 100 µM: read-out: % inh@100, enzyme inhibition at compound concentration of 100 uM
Procedure, shortened: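 Percent inhibition, background-corrected against uninhibited control, was measured at 100 and 33 uM compound. Incorporation of [3H]-UTP (10 μM each NTP) into biotinylated HCV-template RNA, 37° C for 2 h, pH 7.5, scintillation proximity. Enzyme: C-terminally truncated (21 aa), His6-tagged NS5b from XL-1.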

Row | Structure (SMILES) | inhibition at 33 µM [%] | inhibition at 100 µM [%]
1 | O=C(O)c1ccc2c(c1)nc(-c1ccc3nc(-c4ccccc4)cc(Oc4ccccc4)c3c1)n2C1CCCCC1 [Compound 496, 1-cyclohexyl-2-(4-phenoxy-2-phenyl-quinolin-6-yl)-1H-benzoimidazole-5-carboxylic acid] | 101 | 101
2 | CC(NC(=O)c1ccc2cc(-c3nc4cc(C(=O)O)ccc4n3C3CCCCC3)ccc2n1)C(N)=O (stereo not drawn) [Compound 497, 2-[2-(1-Carbamoylethylcarbamoyl)quinolin-6-yl]-1-cyclohexyl-1H-benzimidazole-5-carboxylic acid] | 65.5 | 88.5
3 | Cc1cc(-c2ccccc2)nc2ccc(-c3nc4cc(C(=O)O)ccc4n3C3CCCCC3)cc12 [Compound 498, 1-Cyclohexyl-2-(4-methyl-2-phenyl-quinolin-6-yl)-1H-benzoimidazole-5-carboxylic acid] | 98.5 | 100
4 | COc1ccc(-c2ccccc2)c(-c2ccc3cc(-c4nc5cc(C(=O)O)ccc5n4C4CCCCC4)ccc3n2)c1 [Compound 499, 1-Cyclohexyl-2-[2-(4-methoxy-biphen-2-yl)-quinolin-6-yl]-1H-benzoimidazole-5-carboxylic acid] | 101 | 99.7
5 | O=C(O)c1ccc2c(c1)nc(-c1ccc3nc(-c4cc(O)ccc4-c4ccc(Cl)cc4)ccc3c1)n2C1CCCCC1 [Compound 500, 2-[2-(4′-Chloro-4-hydroxy-biphen-2-yl)-quinolin-6-yl]-1-cyclohexyl-1H-benzoimidazole-5-carboxylic acid] | 101 | 101
6 | CC(=O)Nc1ccc(-c2ccc3cc(-c4nc5cc(C(=O)O)ccc5n4C4CCCCC4)ccc3n2)cc1 [Compound 501, 2-[2-(4-acetylamino-phenyl)-quinolin-6-yl]-1-cyclohexyl-1H-benzoimidazole-5-carboxylic acid] | 90.6 | 96.8
7 | CC1(C)C(CC(=O)O)CC1c1ccc2cc(-c3nc4cc(C(=O)O)ccc4n3C3CCCCC3)ccc2n1 (stereo not drawn) [Compound 502, 2-[2-(3-carboxymethyl-2,2-dimethyl-cyclobutyl)-quinolin-6-yl]-1-cyclohexyl-1H-benzoimidazole-5-carboxylic acid] | 99 | 100
8 | O=C(O)c1ccc2c(c1)nc(-c1ccc3nc(-c4cccc(OCC(=O)N5CCCC5)c4)ccc3c1)n2C1CCCCC1 [Compound 503, 1-cyclohexyl-2-{2-[3-(2-oxo-2-pyrrolidin-1-yl-ethoxy)-phenyl]-quinolin-6-yl}-1H-benzoimidazole-5-carboxylic acid] | 95.8 | 97
9 | CN(C)CCNC(=O)c1ccc(-c2ccccc2)c(-c2ccc3cc(-c4nc5cc(C(=O)O)ccc5n4C4CCCCC4)ccc3n2)c1 [Compound 504, 1-Cyclohexyl-2-{2-[4-(2-dimethylamino-ethylcarbamoyl)-biphen-2-yl]-quinolin-6-yl}-1H-benzoimidazole-5-carboxylic acid] | 98.3 | 100
10 | Cc1oc(-c2ccc(Cl)cc2)cc1-c1ccc2cc(-c3nc4cc(C(=O)O)ccc4n3C3CCCCC3)ccc2n1 [Compound 505, 2-{2-[5-(4-chloro-phenyl)-2-methyl-furan-3-yl]-quinolin-6-yl}-1-cyclohexyl-1H-benzoimidazole-5-carboxylic acid] | 99.7 | 102
11 | CCOCCOc1ccc(-c2ccc(Cl)cc2)c(-c2ccc3cc(-c4nc5cc(C(=O)O)ccc5n4C4CCCCC4)ccc3n2)c1 [Compound 507, 2-{2-[4′-Chloro-4-(2-ethoxy-ethoxy)-biphen-2-yl]-quinolin-6-yl}-1-cyclohexyl-1H-benzoimidazole-5-carboxylic acid] | 101 | 101
12 | O=C(O)c1ccc2c(c1)nc(-c1ccc3nc(-c4ccc(Cl)c(Cl)c4)ccc3c1)n2C1CCCCC1 [Compound 508, 1-cyclohexyl-2-[2-(3,4-dichloro-phenyl)-quinolin-6-yl]-1H-benzoimidazole-5-carboxylic acid] | 98.9 | 98.9
13 | O=C(O)c1ccc2c(c1)nc(-c1ccc3nc(-c4ccccc4)cc(Oc4ccc5ccc(O)cc5c4)c3c1)n2C1CCCCC1 [Compound 509, 1-cyclohexyl-2-[4-(7-hydroxy-naphthalen-2-yloxy)-2-phenyl-quinolin-6-yl]-1H-benzoimidazole-5-carboxylic acid] | 100 | 101
14 | O=C(O)c1ccc2c(c1)nc(-c1ccc3nc(C(=O)Nc4ccc(Cl)cc4)ccc3c1)n2C1CCCCC1 [Compound 510, 2-[2-(4-Chlorophenylcarbamoyl)quinolin-6-yl]-1-cyclohexyl-1H-benzimidazole-5-carboxylic acid] | 99.5 | 100
15 | CC(C)[C@H](NC(=O)c1ccc2cc(-c3nc4cc(C(=O)O)ccc4n3C3CCCCC3)ccc2n1)C(N)=O [Compound 511, 2-[2-(1-Carbamoyl-2-methylpropylcarbamoyl)quinolin-6-yl]-1-cyclohexyl-1H-benzimidazole-5-carboxylic acid] | 78.4 | 95
16 | C[C@@H](O)[C@H](NC(=O)c1ccc2c(c1)nc(-c1ccc3nc(-c4ccccc4)cnc3c1)n2C1CCCCC1)C(=O)O [Compound 512, 2-{[1-Cyclohexyl-2-(2-phenyl-quinoxalin-6-yl)-1H-benzoimidazole-5-carbonyl]-amino}-3-hydroxy-butyric acid] | 78.9 | 97.9
17 | CC(C)C[C@H](NC(=O)c1ccc2c(c1)nc(-c1ccc3nc(-c4ccccc4)cnc3c1)n2C1CCCCC1)C(=O)O [Compound 513, 2-{[1-Cyclohexyl-2-(2-phenyl-quinoxalin-6-yl)-1H-benzoimidazole-5-carbonyl]-amino}-4-methyl-pentanoic acid] | 93.2 | 95.9
18 | O=C(c1ccc2c(c1)nc(-c1cc3ccc(-c4ccccc4-c4ccc(Cl)cc4)nc3cc1F)n2C1CCCCC1)N1CCC(O)CC1 [Compound 514, {2-[2-(4′-Chloro-biphen-2-yl]-7-fluoro-quinolin-6-yl]-1-cyclohexyl-1H-benzoimidazol-5-yl}-(4-hydroxy-piperidin-1-yl)-methanone] | 89.6 | 91.9
19 | CSCC[C@H](NC(=O)c1ccc2c(c1)nc(-c1ccc3nc(-c4ccccc4)cnc3c1)n2C1CCCCC1)C(=O)O [Compound 515, 2-{[1-Cyclohexyl-2-(2-phenyl-quinoxalin-6-yl)-1H-benzoimidazole-5-carbonyl]-amino}-4-methylsulfanyl-butyric acid] | 81.9 | 88.3
20 | O=C(N[C@@H](Cc1c[nH]c2ccc(O)cc12)C(=O)O)c1ccc2c(c1)nc(-c1ccc3cc(-c4ccccc4)cnc3c1)n2C1CCCCC1 [Compound 516, 2-{[1-cyclohexyl-2-(3-phenyl-quinolin-7-yl)-1H-benzoimidazole-5-carbonyl]-amino}-3-(5-hydroxy-1H-indol-3-yl)-propionic acid] | 99.3 | 100
21 | CC(C)[C@H](NC(=O)c1ccc2c(c1)nc(-c1ccc3nc(-c4ccccc4)cnc3c1)n2C1CCCCC1)C(=O)O [Compound 517, 2-{[1-Cyclohexyl-2-(2-phenyl-quinoxalin-6-yl)-1H-benzoimidazole-5-carbonyl]-amino}-3-methyl-butyric acid] | 81 | 97.8
22 | NC(=O)C[C@H](NC(=O)c1ccc2c(c1)nc(-c1ccc3nc(-c4ccccc4)cnc3c1)n2C1CCCCC1)C(=O)O [Compound 518, 2-{[1-Cyclohexyl-2-(2-phenyl-quinoxalin-6-yl)-1H-benzoimidazole-5-carbonyl]-amino}-succinamic acid] | 76 | 97.8
23 | O=C(N[C@@H](Cc1ccc(O)cc1)C(=O)O)c1ccc2c(c1)nc(-c1ccc3nc(-c4ccccc4)cnc3c1)n2C1CCCCC1 [Compound 519, 2-{[1-Cyclohexyl-2-(2-phenyl-quinoxalin-6-yl)-1H-benzoimidazole-5-carbonyl]-amino}-3-(4-hydroxy-phenyl)-propionic acid] | 96.9 | 99.1
24 | O=C(O)[C@@H]1Cc2ccccc2CN1C(=O)c1ccc2c(c1)nc(-c1ccc3nc(-c4ccccc4)cnc3c1)n2C1CCCCC1 [Compound 520, 2-[1-Cyclohexyl-2-(2-phenyl-quinoxalin-6-yl)-1H-benzoimidazole-5-carbonyl]-1,2,3,4-tetrahydro-isoquinoline-3-carboxylic acid] | 94.8 | 98.9
25 | CN1CCN(C(=O)c2ccc3c(c2)nc(-c2cc4ccc(-c5ccccc5-c5ccc(Cl)cc5)nc4cc2F)n3C2CCCCC2)CC1 [Compound 521, {2-[2-(4′-Chloro-biphen-2-yl)-7-fluoro-quinolin-6-yl]-1-cyclohexyl-1H-benzoimidazol-5-yl}-(4-methyl-piperazin-1-yl)-methanone] | 84.8 | 91.4
26 | CN1CCN(C(=O)c2ccc3c(c2)nc(-c2cc4ccc(-c5ccccc5-c5ccccc5)nc4cc2F)n3C2CCCCC2)CC1 [Compound 522, [2-(2-Biphen-2-yl-7-fluoro-quinolin-6-yl)-1-cyclohexyl-1H-benzoimidazol-5-yl]-(4-methyl-piperazin-1-yl)-methanone] | 76.7 | 74.2
27 | N=C(N)NCCC[C@H](NC(=O)c1ccc2c(c1)nc(-c1ccc3nc(-c4ccccc4)cnc3c1)n2C1CCCCC1)C(=O)O [Compound 523, 2-{[1-Cyclohexyl-2-(2-phenyl-quinoxalin-6-yl)-1H-benzoimidazole-5-carbonyl]-amino}-5-guanidino-pentanoic acid] | 87.1 | 95
